Assay results as given in patent US9932341B2, “Use of pyrazolopyrimidine derivatives for the treatment of PI3K-delta related disorders” (Incyte Corporation, priority 2013, dated 2018).

What was measured:
[1] = system: Pfeiffer human tumor xenograft model of diffuse large B-cell lymphoma; assay: Pfeiffer Model of Lymphoma (Example D); type: in vivo; conditions: SCID mice
Experimental: Female SCID mice, (5 to 8 weeks of age, Charles River Laboratories, Wilmington, Mass.) were inoculated with 1×10^7 tumor cells (Pfeiffer, ATCC #CRL-2632, Manassas, Va.) and matrigel (BD Biosciences #354234) in 0.2 mL sterile saline. The inoculation was performed subcutaneously on the flank. Tumor tissue fragments (approximately 3 mm×3 mm) were collected 3 to 6 weeks after the inoculation of cultured cells and implanted subcutaneously in lieu of cellular inoculation. Tissue fragments were implanted as solid pieces using blunt-tip forceps. The treatment of tumor bearing mice was started 15 to 25 days after tumor inoculation, depending upon the tumor size. Animals were sorted to obtain roughly equivalent mean tumor volumes in each group. Minimum mean tumor volume in all groups was 150 mm3 on the first day of treatment and groups consisted of 7 animals. Experimental therapeutic agent, Example 347, was administered to mice orally (PO). Treatment frequency was 2 times daily for a minimum of 14 days for efficacy. The size of subcutaneous tumors was measured 2 to 3 times weekly using a digital caliper. The tumor volume was calculated by measuring the tumor in 2 dimensions and utilizing the equation: Volume=[Length×(Width2)]/2; where the larger number was length, and the smaller number width. If multiple tumors were formed, the final volume was the sum of the individual tumors subject to the same equation: eg, 2 tumors; Volume={[L1×(W1)2]/2}+{[L2×(W2)2]/2}. Effects on tumor growth were reported as percent tumor growth inhibition (% TGI). Percent TGI was calculated with the equation: (1−(Tx vol./control vol.))*100, where control volume was the vehicle or untreated tumor volume on a given day, and Tx volume was any treatment group tumor volume on that same day. Statistical differences between treatment and vehicle controls were assessed using ANOVA: Single Factor test.

[2] = system: Pfeiffer cell line (diffuse large B cell lymphoma); assay: Pfeiffer Cell Proliferation Assay (Example B2); type: cell-based, human
Experimental: Pfeiffer cell line (diffuse large B cell lymphoma) are purchased from ATCC (Manassas, Va.) and maintained in the culture medium recommended (RPMI and 10% FBS). To measure the anti-proliferation activity of the compounds, the Pfeiffer cells are plated with the culture medium (2×10^3 cells well per […]) into 96-well ultra-low binding plates (Corning, Corning, N.Y.), in the presence or absence of a concentration range of test compounds. After 3-4 days, [^3H]-thymidine (1 μCi/well) (PerkinElmer, Boston, Mass.) in PBS is then added to the cell culture for an additional 12 hours before the incorporated radioactivity is separated by filtration with water through GF/B filters (Packard Bioscience, Meriden, Conn.) and measured by liquid scintillation counting with a TopCount (Packard Bioscience).

PI3Kδ (p110δ/p85α) = PI3Kδ (p110δ/p85α) (Homo sapiens (Human), UniProt O00329); assay: PI3Kδ Scintillation Proximity Assay (Example A3); type: biochemical; conditions: 20 μM ATP, 20 μM PIP2, 4 nM PI3Kδ, read-out: PI3Kδ SPA IC50
Sequence of PI3Kδ (p110δ/p85α) (O00329 whole entry): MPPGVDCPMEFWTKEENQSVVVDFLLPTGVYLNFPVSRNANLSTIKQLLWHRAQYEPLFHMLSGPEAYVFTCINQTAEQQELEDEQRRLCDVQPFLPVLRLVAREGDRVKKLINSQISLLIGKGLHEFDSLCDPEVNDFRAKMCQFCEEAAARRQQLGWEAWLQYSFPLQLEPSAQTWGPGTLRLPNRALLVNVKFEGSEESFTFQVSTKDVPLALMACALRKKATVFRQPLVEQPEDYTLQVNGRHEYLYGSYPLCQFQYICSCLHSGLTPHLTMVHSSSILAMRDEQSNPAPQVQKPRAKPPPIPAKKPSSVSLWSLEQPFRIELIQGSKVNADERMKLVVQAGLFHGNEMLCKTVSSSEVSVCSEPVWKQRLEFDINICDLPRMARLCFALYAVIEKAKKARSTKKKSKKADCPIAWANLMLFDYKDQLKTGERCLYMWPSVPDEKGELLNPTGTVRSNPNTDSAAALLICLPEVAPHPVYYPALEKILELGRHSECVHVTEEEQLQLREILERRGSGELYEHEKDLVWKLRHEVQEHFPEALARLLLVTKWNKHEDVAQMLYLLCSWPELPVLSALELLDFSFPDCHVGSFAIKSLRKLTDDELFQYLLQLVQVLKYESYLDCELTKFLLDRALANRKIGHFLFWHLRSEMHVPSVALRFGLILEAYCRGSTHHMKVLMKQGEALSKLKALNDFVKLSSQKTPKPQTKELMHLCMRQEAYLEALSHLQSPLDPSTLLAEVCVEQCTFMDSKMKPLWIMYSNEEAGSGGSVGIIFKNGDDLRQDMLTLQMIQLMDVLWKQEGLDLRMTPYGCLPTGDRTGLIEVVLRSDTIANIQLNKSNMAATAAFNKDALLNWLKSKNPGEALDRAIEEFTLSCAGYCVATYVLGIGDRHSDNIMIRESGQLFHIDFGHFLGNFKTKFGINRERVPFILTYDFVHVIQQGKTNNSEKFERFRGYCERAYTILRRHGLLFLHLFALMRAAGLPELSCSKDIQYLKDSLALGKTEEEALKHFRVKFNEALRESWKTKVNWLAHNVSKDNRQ
Sequence of PI3Kδ (p110δ/p85α) (P27986 whole entry partner): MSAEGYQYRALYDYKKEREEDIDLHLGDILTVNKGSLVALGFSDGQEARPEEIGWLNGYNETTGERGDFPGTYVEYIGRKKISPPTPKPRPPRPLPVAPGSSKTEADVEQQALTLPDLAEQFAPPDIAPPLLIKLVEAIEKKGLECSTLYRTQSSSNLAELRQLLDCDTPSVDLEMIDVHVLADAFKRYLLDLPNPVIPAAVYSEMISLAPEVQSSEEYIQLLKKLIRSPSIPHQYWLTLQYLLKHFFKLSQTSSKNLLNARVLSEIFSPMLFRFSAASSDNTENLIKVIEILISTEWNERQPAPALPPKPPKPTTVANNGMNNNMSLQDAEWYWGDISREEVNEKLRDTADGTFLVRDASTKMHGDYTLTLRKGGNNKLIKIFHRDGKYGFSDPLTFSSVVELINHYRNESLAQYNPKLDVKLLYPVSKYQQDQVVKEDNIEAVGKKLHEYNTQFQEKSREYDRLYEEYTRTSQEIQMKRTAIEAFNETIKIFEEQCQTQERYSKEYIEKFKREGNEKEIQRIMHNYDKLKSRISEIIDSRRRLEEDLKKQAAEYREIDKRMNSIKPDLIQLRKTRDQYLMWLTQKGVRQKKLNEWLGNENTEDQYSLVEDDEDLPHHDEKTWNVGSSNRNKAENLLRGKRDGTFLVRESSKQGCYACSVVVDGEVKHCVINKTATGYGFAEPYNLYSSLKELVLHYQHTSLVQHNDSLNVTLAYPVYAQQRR
Outline: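 SPA with 4 nM p110δ/p85α, 20 μM PIP2, 20 μM ATP plus [γ-^33P]ATP, in 20 mM MOPS pH 6.7, 10 mM MgCl2, 5 mM DTT, 0.03% CHAPS, 0.5% DMSO, room temperature. Stopped with EDTA/ATP, WGA SPA beads, overnight shaking, scintillation counting. IC50 from % control activity vs log concentration.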

PI3Kδ = PI3Kδ (Homo sapiens (Human), UniProt O00329); assay: PI3K Enzyme Assay (Example A2, [γ-33P]ATP filter plate); type: biochemical; conditions: 1000 μM ATP, 50 μM PIP2
Sequence of PI3Kδ (O00329 whole entry, canonical isoform): as the sequence (O00329 whole entry) above
Sequence of PI3Kδ (P27986 whole entry partner, canonical isoform): as the sequence (P27986 whole entry partner) above
Experimental: PI3K isoforms α, β, δ and γ are purchased from Millipore (Bedford, Mass.).
Inhibitors are first diluted serially in DMSO and added to the plate wells before the addition of other reaction components. The final concentration of DMSO in the assay is 0.5%. The PI3K assays are carried out at room temperature in 20 mM MOPS, pH 6.7, 10 mM MgCl2, 5 mM DTT and CHAPS 0.03%. The reaction mixture is prepared containing 50 μM PIP2, kinase and varying concentration of inhibitors. Reactions are initiated by the addition of ATP containing 2.2 μCi [γ-^33P]ATP to a final concentration of 1000 μM. […] After drying by aspiration and blotting, the plate is air dried in an incubator at 37° C. overnight. Packard TopCount adapter (Millipore) is then attached to the plate followed with addition of 120 μL Microscint 20 scintillation cocktail (Perkin Elmer) in each well. […] IC50 determination is performed by fitting the curve of percent control activity versus the log of the inhibitor concentration using the GraphPad Prism 3.0 software.

SMILES	IC50 (PI3Kδ (p110δ/p85α)) [nM]	further results
CCOc1c(C(C)n2nc(C)c3c(N)ncnc32)cc(Cl)c(F)c1C1CNC(=O)C1 (single isomer, unassigned) [Example 347, 4-{3-[1-(4-amino-3-methyl-1H-pyrazolo[3,4-d]pyrimidin-1-yl)ethyl]-5-chloro-2-ethoxy-6-fluorophenyl}pyrrolidin-2-one]		percent tumor growth inhibition ([1]; 0.3 mg/kg oral twice daily for 14 days): 22%; percent tumor growth inhibition ([1]; 1 mg/kg oral twice daily for 14 days): 24%; percent tumor growth inhibition ([1]; 3 mg/kg oral twice daily for 14 days): 36%; percent tumor growth inhibition ([1]; 10 mg/kg oral twice daily for 14 days): 58%; anti-proliferative effects in vitro on Pfeiffer cancer cells [2]: sensitive
COc1c(C(C)n2nc(C)c3c(N)ncnc32)cc(Cl)c(C)c1C1CN([C@H](C)CO)C1 (stereo partly drawn) [Example 156, (2R)-2-(3-{3-[1-(4-Amino-3-methyl-1H-pyrazolo[3,4-d]pyrimidin-1-yl)ethyl]-5-chloro-2-methoxy-6-methylphenyl}azetidin-1-yl)propan-1-ol]	< 10	
COc1c(C(C)n2nc(C)c3c(N)ncnc32)cc(Cl)c(C)c1C1CN([C@H](C)C(=O)N(C)C)C1 (stereo partly drawn) [Example 159, (2R)-2-(3-{3-[1-(4-Amino-3-methyl-1H-pyrazolo[3,4-d]pyrimidin-1-yl)ethyl]-5-chloro-2-methoxy-6-methylphenyl}azetidin-1-yl)-N,N-dimethylpropanamide]	< 10	
COc1c(C(C)n2nc(C)c3c(N)ncnc32)cc(Cl)c(C)c1-c1ccnc(C(=O)N(C)C)c1 (stereo not shown) [Example 200, 4-(3-(1-(4-Amino-3-methyl-1H-pyrazolo[3,4-d]pyrimidin-1-yl)ethyl)-5-chloro-2-methoxy-6-methylphenyl)-N,N-dimethylpicolinamide bis(2,2,2-trifluoroacetate)]	< 10	
CCOc1c(C(C)n2nc(C)c3c(N)ncnc32)cc(Cl)c(C)c1-c1ccc(C(=O)N(C)C)cn1 (stereo not shown) [Example 208, 6-{3-[1-(4-Amino-3-methyl-1H-pyrazolo[3,4-d]pyrimidin-1-yl)ethyl]-5-chloro-2-ethoxy-6-methylphenyl}-N,N-dimethylnicotinamide bis(trifluoroacetate)]	< 10	
CCOc1c(C(C)n2nc(C)c3c(N)ncnc32)cc(Cl)c(C)c1C1CNC(=O)C1 (stereo not shown) [Example 310, 4-{3-[1-(4-amino-3-methyl-1H-pyrazolo[3,4-d]pyrimidin-1-yl)ethyl]-5-chloro-2-ethoxy-6-methylphenyl}pyrrolidin-2-one]	< 10	
COc1c([C@@H](C)n2nc(C)c3c(N)ncnc32)cc(Cl)c(C#N)c1C1CN(C[C@H](C)O)C1 [Example 361, 4-((R)-1-(4-amino-3-methyl-1H-pyrazolo[3,4-d]pyrimidin-1-yl)ethyl)-6-chloro-2-(1-((S)-2-hydroxypropyl)azetidin-3-yl)-3-methoxybenzonitrile]		IC50 (PI3Kδ): > 500 nM

The next lines start with results.

IC50 (PI3Kδ (p110δ/p85α)) [nM]	SMILES	further results
< 10	CCOc1c(C(C)n2nc(C)c3c(N)ncnc32)cc(Cl)c(C#N)c1C1CN(C[C@H](C)O)C1 (stereo partly drawn) [Example 220, 4-[1-(4-Amino-3-methyl-1H-pyrazolo[3,4-d]pyrimidin-1-yl)ethyl]-6-chloro-3-ethoxy-2-{1-[(2S)-2-hydroxypropyl]azetidin-3-yl}benzonitrile]	
< 10	COc1c(C(C)n2nc(C)c3c(N)ncnc32)cc(Cl)c(C#N)c1C1CN(C[C@H](C)O)C1 (stereo partly drawn) [Example 269, 4-[1-(4-Amino-3-methyl-1H-pyrazolo[3,4-d]pyrimidin-1-yl)ethyl]-6-chloro-2-{1-[(2S)-2-hydroxypropyl]azetidin-3-yl}-3-methoxybenzo nitrile]	
< 10	COc1c(C(C)n2nc(C)c3c(N)ncnc32)cc(Cl)c(C#N)c1C1CN(C(C)CO)C1 (stereo not shown) [Example 272, 4-[1-(4-amino-3-methyl-1H-pyrazolo[3,4-d]pyrimidin-1-yl)ethyl]-6-chloro-2-[1-(2-hydroxy-1-methylethyl)azetidin-3-yl]-3-methoxybenzonitrile]	
< 10	COc1c(C(C)n2nc(C)c3c(N)ncnc32)cc(Cl)c(C)c1C1CNC(=O)O1 (stereo not shown) [Example 325, 5-{3-[1-(4-Amino-3-methyl-1H-pyrazolo[3,4-d]pyrimidin-1-yl)ethyl]-5-chloro-2-methoxy-6-methylphenyl}-1,3-oxazolidin-2-one]	
< 10	COc1c([C@H](C)n2nc(C)c3c(N)ncnc32)cc(Cl)c(C#N)c1C1CN(C[C@@H](C)O)C1 [Example 362]	
